Reference: patent publication US10683297B2 (Sunshine Lake Pharma Co., Ltd., priority 2017, dated 2020)
Marks after values point to notes of the source that are not given here.

Legend:
[1] = biological target: T1, JAK2 (h) (Homo sapiens, UniProt O60674); assay: JAK2 (h) kinase assay; format: biochemical; settings: [γ-33P-ATP] 10 μM or KM values; 40 minutes at room temperature
T1 construct: purchased Millipore UK Ltd (assays performed there as a service)
Protocol: Kinase assays can be performed by measurement of incorporation of γ-^33P ATP into immobilized myelin basic protein (MBP). High binding white 384 well plates (Greiner) are coated with MBP (Sigma # M-1891) by incubation of 60 μL well of 20 μg/mL MBP in Tris-buffered saline (TBS; 50 mM Tris pH 8.0, 138 mM NaCl, 2.7 mM KCl) for 24 h at 4° C. Plates are washed 3× with 100 μL TBS. Kinase reactions are carried out in a total volume of 34 μL in kinase buffer (according to the need to make, for example, 5 mM Hepes pH 7.6, 15 mM NaCl, 0.01% bovine gamma globulin (Sigma #1-5506), 10 mM MgCl2, 1 mM DTT, 0.02% TritonX-100). Compound dilutions are performed in DMSO and added to assay wells to a final DMSO concentration of 1%. Each data point is measured in duplicate, and at least two duplicate assays are performed for each individual compound determination. Enzyme is added to final concentrations of 10 nM or 20 nM, for example. A mixture of unlabeled ATP and γ-^33P ATP is added to start the reaction (2×10^6 cpm of γ-^33P ATP per well (3000 Ci/mmole) and 10 μM unlabeled ATP, typically. The reactions are carried out for 1 hour at room temperature with shaking. Plates are washed 7× with TBS, followed by the addition of 50 μL well scintillation fluid (Wallac). Plates are read using a Wallac Trilux counter. This is only one format of such assays; various other formats are possible, as known to one skilled in the art.
(§1) The above assay procedure can be used to determine the IC50 for inhibition and/or the inhibition constant, Ki. […] The IC50 value is estimated by preparing a 10 point curve using a ½ log dilution series (for example, a typical curve may be prepared using the following compound concentrations: 3 μM, 1 μM, 0.3 μM, 0.1 μM, 0.03 μM, 0.01 μM, 0.003 μM, 0.001 μM, 0.0003 μM and 0 μM).
(§2) JAK2 (h) is incubated with 8 mM MOPS pH 7.0, 0.2 mM EDTA, 100 μM […], 10 mM MgAcetate and [γ-^33P-ATP] […] The reaction is initiated by the addition of the MgATP mix. After incubation for 40 minutes at room temperature, the reaction is stopped by the addition of 3% phosphoric acid solution. 10 μL of the reaction is then spotted onto a P30 filtermat and washed three times for 5 minutes in 75 mM phosphoric acid and once in methanol prior to drying and scintillation counting.
(§3) The kinase assays described herein were performed at Millipore UK Ltd, Dundee Technology Park, Dundee DD2 1SW, UK.

[2] = biological target: T2, Aurora-A (h) (Homo sapiens, UniProt O14965); assay: Aurora-A (h) kinase assay; format: biochemical; settings: [γ-33P-ATP] 10 μM or KM values; 40 minutes at room temperature
T2 construct: purchased Millipore UK Ltd (assays performed there as a service)
T2 sequence (O14965 1-403): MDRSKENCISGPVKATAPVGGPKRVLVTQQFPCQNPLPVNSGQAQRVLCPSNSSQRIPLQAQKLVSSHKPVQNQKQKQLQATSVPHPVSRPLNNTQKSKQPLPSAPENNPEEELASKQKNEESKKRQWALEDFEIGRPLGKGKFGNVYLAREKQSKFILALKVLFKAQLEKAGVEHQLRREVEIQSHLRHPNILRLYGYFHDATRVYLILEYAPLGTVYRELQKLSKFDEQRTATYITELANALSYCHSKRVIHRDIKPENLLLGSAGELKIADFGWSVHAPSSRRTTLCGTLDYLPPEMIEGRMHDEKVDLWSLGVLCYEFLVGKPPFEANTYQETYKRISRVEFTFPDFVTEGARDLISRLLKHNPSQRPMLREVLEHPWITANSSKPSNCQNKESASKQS
Protocol: as §1
Aurora-A (h) is incubated with 8 mM MOPS pH 7.0, 0.2 mM EDTA, 200 μM LRRASLG (Kemptide), 10 mM MgAcetate and [γ-^33P-ATP] […] The reaction is initiated by the addition of the MgATP mix. After incubation for 40 minutes at room temperature, the reaction is stopped by the addition of 3% phosphoric acid solution. 10 μL of the reaction is then spotted onto a P30 filtermat and washed three times for 5 minutes in 75 mM phosphoric acid and once in methanol prior to drying and scintillation counting.
as §3

[3] = biological target: T3, JAK1 (h) (Homo sapiens, UniProt P23458); assay: JAK1 (h) kinase assay; format: biochemical; settings: [γ-33P-ATP] 10 μM or KM values; 40 minutes at room temperature
T3 construct: purchased Millipore UK Ltd (assays performed there as a service)
Protocol: as §1
as §2, with “JAK1” for “JAK2”, “20” for “8”, “Tris/HCl” for “MOPS”, “7.5,” for “7.0,”, “500” for “100”
as §3

[4] = Compound stability in rat liver microsomes; format: in vitro ADME; settings: for CLint scaled at 5 μM: liver microsomes, pH 7.4, in vivo CLint extrapolated from rat liver microsome incubation; for half-life at 5 μM: rat liver microsomes 0.5 mg protein/mL, compound 5 μM, NADPH 1.0 mM, pH 7.4, 37° C., read-out: Rat T1/2
In short: (§4)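 Compounds (5 μM) incubated at 37 °C with human or rat liver microsomes (0.5 mg protein/mL) and 1.0 mM NADPH in 100 mM phosphate buffer pH 7.4, 0.05% DMSO, in duplicate. Sampled 0–60 min, quantified by LC/MS/MS as % of time zero; CLint extrapolated.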

[5] = Compound stability in human liver microsomes; format: in vitro ADME; settings: for half-life at 5 μM: human liver microsomes 0.5 mg protein/mL, compound 5 μM, NADPH 1.0 mM, pH 7.4, 37° C., read-out: Human T1/2; for CLint scaled at 5 μM: liver microsomes, pH 7.4, in vivo CLint extrapolated from human liver microsome incubation
In short: as §4

[6] = Pharmacokinetics after intravenous and oral administration in rats; format: in vivo; settings: for Clearance (CL) after iv dosing / AUC(0-t) / half-life / Vd: dose 1 mg/kg (Ex. 9: 0.6, Ex. 18: 0.5, Ex. 50: 0.96 mg/kg), iv dosing; for AUC(0-t) / half-life / Vd / bioavailability: rat, plasma; for Vd: read-out: Vss; for bioavailability: oral (generally 5 or 10 mg/kg) versus iv dosing, read-out: F (oral bioavailability)
In short: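 Rats dosed i.v. (about 0.5, 0.6, 1 or 2 mg/kg) or p.o. (5 or 10 mg/kg) as solution, suspension or capsule. Plasma sampled over 24 h and quantified by LC/MS/MS in MRM mode with ESI.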

[7] = tested on: PMA-induced increase in mouse ear thickness and weight; assay: Topical PMA-induced acute atopic dermatitis in ICR mice; format: in vivo; settings: ICR female mice, 0.3 mg/ear/bid topical; for thickness (right ear) / Weight (right ear): 30 minutes before and 15 minutes after PMA, Mean±Sem; for thickness (right ear) / thickness Inhibition ratio: 6 hours after PMA
Protocol: ICR female mice (20-30 g), five mice or nine mice/group, were used in this study. Five micrograms of PMA (phorbol 12-myristate 13-acetate) in 20 μL of ethanol was applied topically to the anterior and posterior surface of the right ear of each mouse. Twenty microliters of vehicle (ethanol/acetone ([…])=1/1); 0.3 mg of EX. 68 ([…]); EX. 76, EX. 50, EX. 92 or EX. 65 (0.3 mg […]) were administrated to the same areas 30 minutes before and 15 minutes after PMA application. The thickness of right ears of each mouse was measured 6 hours after PMA stimulation. Ear weight of right ears of each mouse was weighed with analytical balance Each value represents the Mean±Sem. Statistical significance compared with model groups (*P<0.05; **P<0.01). Tables 5-1, 5-2 and 5-3 listed the inhibitory effect on PMA-induced increase in mouse ear thickness and weight. The compounds of the present invention have a good inhibitory effect on PMA-induced increase in mouse ear thickness and weight.

T3 sequence (P23458 whole entry): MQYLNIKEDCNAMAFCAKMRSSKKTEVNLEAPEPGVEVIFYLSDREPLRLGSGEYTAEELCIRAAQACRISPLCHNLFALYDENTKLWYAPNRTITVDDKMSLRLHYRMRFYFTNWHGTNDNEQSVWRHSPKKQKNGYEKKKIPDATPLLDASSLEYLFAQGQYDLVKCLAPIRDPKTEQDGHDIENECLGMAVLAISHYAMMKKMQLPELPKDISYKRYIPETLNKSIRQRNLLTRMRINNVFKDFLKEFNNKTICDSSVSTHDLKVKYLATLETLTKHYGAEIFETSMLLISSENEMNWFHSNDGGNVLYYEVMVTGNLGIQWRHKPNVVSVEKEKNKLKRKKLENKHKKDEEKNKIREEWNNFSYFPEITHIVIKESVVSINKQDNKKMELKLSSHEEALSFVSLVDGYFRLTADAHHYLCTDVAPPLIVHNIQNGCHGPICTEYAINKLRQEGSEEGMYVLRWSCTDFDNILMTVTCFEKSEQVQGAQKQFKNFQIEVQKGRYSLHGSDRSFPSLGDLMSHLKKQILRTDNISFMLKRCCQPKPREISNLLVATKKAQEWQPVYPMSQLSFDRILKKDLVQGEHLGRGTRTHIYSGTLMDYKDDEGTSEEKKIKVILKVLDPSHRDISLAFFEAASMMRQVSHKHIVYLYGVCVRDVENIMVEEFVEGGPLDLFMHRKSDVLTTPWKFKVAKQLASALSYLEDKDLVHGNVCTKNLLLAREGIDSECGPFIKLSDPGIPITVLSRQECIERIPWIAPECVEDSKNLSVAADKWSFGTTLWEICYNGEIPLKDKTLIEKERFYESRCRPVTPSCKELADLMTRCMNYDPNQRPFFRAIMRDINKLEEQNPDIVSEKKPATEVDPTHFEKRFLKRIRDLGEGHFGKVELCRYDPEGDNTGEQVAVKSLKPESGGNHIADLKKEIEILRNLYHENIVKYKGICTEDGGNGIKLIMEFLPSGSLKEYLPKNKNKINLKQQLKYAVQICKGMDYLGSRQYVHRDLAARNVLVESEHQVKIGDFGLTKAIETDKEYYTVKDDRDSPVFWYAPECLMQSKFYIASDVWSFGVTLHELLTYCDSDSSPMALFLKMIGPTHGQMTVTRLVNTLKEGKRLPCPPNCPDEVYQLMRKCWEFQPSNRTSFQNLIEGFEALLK
T1 sequence (O60674 whole entry): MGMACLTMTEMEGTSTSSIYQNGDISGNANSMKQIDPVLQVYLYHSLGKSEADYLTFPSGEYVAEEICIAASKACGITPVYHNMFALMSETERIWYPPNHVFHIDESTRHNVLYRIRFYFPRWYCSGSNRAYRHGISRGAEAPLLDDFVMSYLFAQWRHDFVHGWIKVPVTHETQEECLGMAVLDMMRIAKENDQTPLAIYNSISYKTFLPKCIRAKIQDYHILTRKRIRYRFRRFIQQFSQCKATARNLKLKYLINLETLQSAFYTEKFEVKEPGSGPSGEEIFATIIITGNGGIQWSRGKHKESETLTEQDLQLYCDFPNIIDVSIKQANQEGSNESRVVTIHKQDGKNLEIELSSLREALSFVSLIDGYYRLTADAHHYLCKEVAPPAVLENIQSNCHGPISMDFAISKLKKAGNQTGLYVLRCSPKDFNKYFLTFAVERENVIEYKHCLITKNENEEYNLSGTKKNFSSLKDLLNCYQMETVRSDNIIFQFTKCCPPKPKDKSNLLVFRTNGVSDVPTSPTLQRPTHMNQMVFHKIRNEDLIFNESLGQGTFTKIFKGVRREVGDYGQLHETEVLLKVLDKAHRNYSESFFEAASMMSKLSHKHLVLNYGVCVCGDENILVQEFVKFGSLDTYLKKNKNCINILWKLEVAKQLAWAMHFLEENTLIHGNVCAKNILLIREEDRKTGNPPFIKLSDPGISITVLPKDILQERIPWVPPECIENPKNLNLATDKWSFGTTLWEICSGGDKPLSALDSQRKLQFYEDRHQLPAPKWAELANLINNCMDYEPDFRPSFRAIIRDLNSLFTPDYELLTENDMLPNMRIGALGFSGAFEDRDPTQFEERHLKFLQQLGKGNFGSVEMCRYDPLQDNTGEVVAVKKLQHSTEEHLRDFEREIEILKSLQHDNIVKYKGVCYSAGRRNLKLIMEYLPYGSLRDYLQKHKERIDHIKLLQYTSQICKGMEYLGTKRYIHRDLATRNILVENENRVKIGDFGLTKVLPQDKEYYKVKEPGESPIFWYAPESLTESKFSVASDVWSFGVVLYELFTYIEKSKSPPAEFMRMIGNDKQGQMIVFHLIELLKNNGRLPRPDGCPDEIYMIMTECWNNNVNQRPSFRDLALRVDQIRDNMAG

| SMILES | IC50 [1] | IC50 [2] | IC50 [3] | CLint scaled at 5 μM [4] | half-life at 5 μM [4] | half-life at 5 μM [5] | CLint scaled at 5 μM [5] | Clearance (CL) after iv dosing [6] | AUC(0-t) [6] | half-life [6] | Vd [6] | bioavailability [6] | Weight Inhibition ratio [7] | thickness (right ear) [7] | Weight (right ear) [7] | thickness Inhibition ratio [7] |
| --- | --- | --- | --- | --- | --- | --- | --- | --- | --- | --- | --- | --- | --- | --- | --- | --- |
| CC(O)Cc1nc2cc(Nc3ncc(Cl)c(NC4CCN(c5ccc(C#N)cn5)CC4)n3)ccn2n1 (stereo not drawn) [Example 57, 6-(4-((5-chloro-2-((2-(2-hydroxypropyl)-[1,2,4]triazolo[1,5-a]pyridin-7-yl)amino)pyrimidin-4-yl)amino)piperidin-1-yl)nicotinonitrile] | 5 nM | > 300 nM | 0.9 nM |  |  |  |  |  |  |  |  |  |  |  |  |  |
| N#Cc1ccc(N2CCC(Nc3nc(Nc4ccn5cc(C(F)F)nc5c4)ncc3Cl)CC2)nn1 [Example 28, 6-(4-((5-chloro-2-((2-(difluoromethyl)imidazo[1,2-a]pyridin-7-yl)amino)pyrimidin-4-yl)amino)piperidin-1-yl)pyridazine-3-carbonitrile] |  |  | 0.5 nM | 164 mL/min/kg | 15.1 min | 41.5 min | 41.9 mL/min/kg | 14 mL/min/kg | 1220 ng·h/mL | 33.6 min | 0.56 L/kg | 56.1% |  |  |  |  |
| CC(C)(O)Cc1cnc2cc(Nc3ncc(Cl)c(NC4CCN(c5ccc(C#N)cn5)CC4)n3)ccn12 [Example 42, 6-(4-((5-chloro-2-((3-(2-hydroxy-2-methylpropyl)imidazo[1,2-a]pyridin-7-yl)amino)pyrimidin-4-yl)amino)piperidin-1-yl)nicotinonitrile] | 23 nM | 1460 nM | < 0.3 nM |  |  |  |  |  |  |  |  |  |  |  |  |  |
| Cc1cn2ccc(Nc3ncc(Cl)c(NC4CCN(c5ccc(C#N)nn5)CC4)n3)cc2n1 [Example 27, 6-(4-((5-chloro-2-((2-methylimidazo[1,2-a]pyridin-7-yl)amino)pyrimidin-4-yl)amino)piperidin-1-yl)pyridazine-3-carbonitrile] | 10 nM | 467 nM | < 0.3 nM |  |  |  |  |  |  |  |  |  |  |  |  |  |
| COC(=O)Cc1nc2cc(Nc3ncc(Cl)c(NC4CCN(c5ccc(C#N)nn5)CC4)n3)ccn2n1 [Example 58, methyl 2-(7-((5-chloro-4-((1-(6-cyanopyridazin-3-yl)piperidin-4-yl)amino)pyrimidin-2-yl)amino)-[1,2,4]triazolo[1,5-a]pyridin-2-yl)acetate] | 27 nM | > 300 nM | 0.8 nM |  |  |  |  |  |  |  |  |  |  |  |  |  |
| N#Cc1ccc(N2CCC(Nc3nc(Nc4cnc5c(c4)ncn5CCO)ncc3Cl)CC2)nc1 [Example 92, 6-(4-((5-chloro-2-((3-(2-hydroxyethyl)-3H-imidazo[4,5-b]pyridin-6-yl)amino)pyrimidin-4-yl)amino)piperidin-1-yl)nicotinonitrile] |  |  |  |  |  |  |  |  |  |  |  |  | 72.30% | 0.319 ± 0.027** mm | 21.444 ± 1.952** mg | 60.03% |
| Cn1cnc2cc(Nc3ncc(Cl)c(NC4CCN(c5ccc(C#N)nn5)CC4)n3)ccc21 [Example 50, 6-(4-((5-chloro-2-((1-methyl-1H-benzo[d]imidazol-5-yl)amino)pyrimidin-4-yl)amino)piperidin-1-yl)pyridazine-3-carbonitrile] |  |  |  | 58.2 mL/min/kg | 29.9 min | 55.6 min | 31.3 mL/min/kg | 14.2 mL/min/kg | 1210 ng·h/mL | 63 min | 1.17 L/kg | 51.8% | 39.95% | 0.321 ± 0.022** mm | 25.222 ± 1.998** mg | 46.89% |
| CC(C)(O)Cc1cn2ccc(Nc3ncc(Cl)c(NC4CCN(c5ccc(C#N)nn5)CC4)n3)cc2n1 [Example 38, 6-(4-((5-chloro-2-((2-(2-hydroxy-2-methylpropyl)imidazo[1,2-a]pyridin-7-yl)amino)pyrimidin-4-yl)amino)piperidin-1-yl)pyridazine-3-carbonitrile] | 41 nM | 440 nM | 0.9 nM |  |  |  |  |  |  |  |  |  |  |  |  |  |
| CCCn1nnc2cc(Nc3ncc(Cl)c(NC4CCN(c5ccc(C#N)nn5)CC4)n3)ccc21 [Example 65, 6-(4-((5-chloro-2-((1-propyl-1H-benzo[d][1,2,3]triazol-5-yl)amino)pyrimidin-4-yl)amino)piperidin-1-yl)pyridazine-3-carbonitrile] |  |  | 0.9 nM | 473 mL/min/kg | 5.3 min | 8 min | 218 mL/min/kg |  |  |  |  |  | 46.22% | 0.374 ± 0.022** mm | 26.333 ± 1.958* mg | 38.95% |
